# Molecular target: T1, αvβ3 receptor (Homo sapiens, UniProt P05106+P06756)
# T1 construct: αvβ3 receptor (purified from human placenta); from tissue; host or cells: human placenta
# Experiment: competition radioligand binding assay, 125I-echistatin to purified αvβ3 receptor
# Details: inhibition of specific binding of 125I-echistatin (0.05 nM), 3 hour incubation at room temperature
row,IC50,Compound
1,~500 nM,O=C(N[C@@H](CNC(=O)c1cccc(CN(Cc2nc3ccccc3[nH]2)C(=O)c2ccc(Cl)cc2)c1)C(=O)O)OCc1ccccc1 [Example 5-7]
2,~500 nM,COCC(=O)N(Cc1cccc(C(=O)NC[C@H](NC(=O)OCc2ccccc2)C(=O)O)c1)Cc1nc2ccccc2[nH]1 [Example 5-10]

# More lines, now with the values behind:
row,Compound,IC50
1,O=C(N[C@@H](CNC(=O)c1ccc(CNCc2nc3ccccc3[nH]2)cc1)C(=O)O)OCc1ccccc1 [Example 5-1],5.4 nM
2,O=C(N[C@@H](CNC(=O)c1cccc(CN(Cc2nc3ccccc3[nH]2)C(=O)c2ccc3c(c2)OCO3)c1)C(=O)O)OCc1ccccc1 [Example 5-9],~500 nM
3,O=C(N[C@@H](CNC(=O)c1ccc(CN(Cc2nc3ccccc3[nH]2)C(=O)c2ccc(Cl)cc2)cc1)C(=O)O)OCc1ccccc1 [Example 5-2],6.5 nM
4,CC(=O)N(Cc1ccc(C(=O)NC[C@H](NC(=O)OCc2ccccc2)C(=O)O)cc1)Cc1nc2ccccc2[nH]1 [Example 5-3],1.9 nM

# Molecular target: αllbβ3 receptor (Homo sapiens, UniProt P05106+P08514)
# Experiment: similar competitive assay with purified αllbβ3 receptor and 125I-echistatin (specificity index versus αvβ3)
# Type: binding
# Details: IC50 αllbβ3 / IC50 αvβ3
# Source text: The specificity index, which is a measure of the relative binding affinity for αvβ3 versus αllbβ3, may be determined by dividing the IC50 value for αllbβ3by the IC50 value for αvβ3.
row,SPECIFICITY αIIb β3/αvβ3 (specificity index),Compound
1,1094,CCCCOC(=O)N[C@@H](CNC(=O)c1ccc(CN(Cc2nc3ccccc3[nH]2)C(=O)N[C@@H](C)C(=O)OCC)cc1)C(=O)O [Example 5-89]
2,15,CCOC(=O)N(Cc1ccc(C(=O)NC[C@H](NC(=O)OCc2ccccc2)C(=O)O)cc1)Cc1nc2ccccc2[nH]1 [Example 5-20]
3,1183,CCCCOC(=O)N[C@@H](CNC(=O)c1ccc(CN(Cc2nc3ccccc3[nH]2)C(=O)Nc2ccc(C(=O)OCC)cc2)cc1)C(=O)O [Example 5-91]
4,19.0,CC(c1nc2ccccc2[nH]1)N(Cc1ccc(C(=O)NC[C@H](NC(=O)OCc2ccccc2)C(=O)O)cc1)C(=O)CCC1CCCC1 (stereo partly drawn) [Example 5-79]
5,293,CC(C)(C)OC(=O)N[C@@H](CNC(=O)c1ccc(CN(Cc2nc3ccccc3[nH]2)C(=O)CCc2ccccc2)cc1)C(=O)O [Example 5-63]
6,128,CN(Cc1ccc(C(=O)NC[C@H](NC(=O)OCc2ccccc2)C(=O)O)cc1)Cc1nc2ccccc2[nH]1 [Example 5-33]
7,203,O=C(N[C@@H](CNC(=O)c1ccc(CN(Cc2nc3ccccc3[nH]2)C(=O)Nc2cccc3ccccc23)cc1)C(=O)O)OCc1ccccc1 [Example 5-37]
8,38,CC(C)C(=O)N(Cc1ccc(C(=O)NC[C@H](NC(=O)OCc2ccccc2)C(=O)O)cc1)Cc1nc2ccccc2[nH]1 [Example 5-13]
9,514,COCCNC(=S)N(Cc1ccc(C(=O)NC[C@H](NC(=O)OCc2ccccc2)C(=O)O)cc1)Cc1nc2ccccc2[nH]1 [Example 5-56]
10,0.7,O=C(NC(CNC(=O)c1ccc(CN(CCc2nc3ccccc3[nH]2)C(=O)CCc2ccccc2)cc1)C(=O)O)OCc1ccccc1 (stereo not drawn) [Example 5-73]
11,620,O=C(N[C@@H](CNC(=O)c1ccc(CN(Cc2nc3ccccc3[nH]2)C(=S)NC2CCCCC2)cc1)C(=O)O)OCc1ccccc1 [Example 5-55]
12,82,CC(=O)OC(C(=O)N(Cc1ccc(C(=O)NC[C@H](NC(=O)OCc2ccccc2)C(=O)O)cc1)Cc1nc2ccccc2[nH]1)c1ccccc1 (stereo partly drawn) [Example 5-18]
13,2028,CCOC(=O)[C@H](CCSC)NC(=O)N(Cc1ccc(C(=O)NC[C@H](NC(=O)OCc2ccccc2)C(=O)O)cc1)Cc1nc2ccccc2[nH]1 [Example 5-48]
14,1210,CCOC(=O)[C@@H](NC(=O)N(Cc1ccc(C(=O)NC[C@H](NC(=O)OCc2ccccc2)C(=O)O)cc1)Cc1nc2ccccc2[nH]1)C(C)C [Example 5-51]
15,1697,CCCCOC(=O)N[C@@H](CNC(=O)c1ccc(CN(Cc2nc3ccccc3[nH]2)C(=O)N[C@H](C(=O)OCC)C(C)C)cc1)C(=O)O [Example 5-90]
16,399,O=C(N[C@@H](CNC(=O)c1ccc(CN(Cc2nc3cc(Cl)ccc3[nH]2)C(=O)NC2CCCCC2)cc1)C(=O)O)OCc1ccccc1 [Example 5-94]
17,288,O=C(N[C@@H](CNC(=O)c1ccc(CN(Cc2nc3ccccc3[nH]2)C(=O)NC23CC4CC(CC(C4)C2)C3)cc1)C(=O)O)OCc1ccccc1 [Example 5-40]
18,419,COCC(=O)N(Cc1ccc(C(=O)NC[C@H](NC(=O)OC(C)(C)C)C(=O)O)cc1)Cc1nc2ccccc2[nH]1 [Example 5-62]

# Further lines, the molecule ahead of its results:
row,Compound,SPECIFICITY αIIb β3/αvβ3 (specificity index)
1,COCC(=O)N(Cc1ccc(C(=O)NC(CC(=O)O)c2ccccc2)cc1)Cc1nc2ccccc2[nH]1 (stereo not drawn) [Example 5-67],0.5
2,O=C(O)CC(NC(=O)c1ccc(CN(Cc2nc3ccccc3[nH]2)C(=O)CCC2CCCC2)cc1)c1ccccc1 (stereo not drawn) [Example 5-69],0.4
3,"CCCCOC(=O)N[C@@H](CNC(=O)c1ccc(CN(Cc2nc3ccccc3[nH]2)C(=O)NCC(=O)OCC)cc1)C(=O)O [Example 5-86, N^3-[4-[(benzimnidazol-2-yl)methyl][[(ethoxycarbonylmethyl)amino]-carbonyl]aminomethylbenzoyl]-N^2-(n-butoxycarbonyl)-L-2,3-diaminopropionic acid]",793
4,O=C(N[C@@H](CNC(=O)c1ccc(CN(Cc2nc3ccccc3[nH]2)C(=O)NCc2ccccc2)cc1)C(=O)O)OCc1ccccc1 [Example 5-29],144
5,O=C(N[C@@H](CNC(=O)c1ccc(CN(Cc2nc3ccccc3[nH]2)C(=O)Nc2ccccc2)cc1)C(=O)O)OCc1ccccc1 [Example 5-27],481
6,O=C(N[C@@H](CNC(=O)c1ccc(CN(Cc2nc3ccccc3[nH]2)C(=O)Nc2ccc(F)cc2)cc1)C(=O)O)OCc1ccccc1 [Example 5-49],504
7,O=C(N[C@@H](CNC(=O)c1ccc(CN(Cc2nc3ccccc3[nH]2)C(=O)N2CCOCC2)cc1)C(=O)O)OCc1ccccc1 [Example 5-42],39
8,COCCC(=O)N(Cc1ccc(C(=O)NC[C@H](NC(=O)OCc2ccccc2)C(=O)O)cc1)Cc1nc2ccccc2[nH]1 [Example 5-25],52
9,O=C(O)CC(NC(=O)c1ccc(CNCc2nc3ccccc3[nH]2)cc1)c1ccccc1 (stereo not drawn) [Example 5-65],0.4
10,O=C(N[C@@H](CNC(=O)c1ccc(CN(Cc2nc3ccccc3[nH]2)C(=O)CCC2CCCC2)cc1)C(=O)O)OCc1ccccc1 [Example 5-14],117
11,O=C(N[C@@H](CNC(=O)c1ccc(CN(Cc2nc3ccccc3[nH]2)C(=O)C2CCCCC2)cc1)C(=O)O)OCc1ccccc1 [Example 5-15],95
12,CCOC(=O)[C@H](Cc1ccccc1)NC(=O)N(Cc1ccc(C(=O)NC[C@H](NC(=O)OCc2ccccc2)C(=O)O)cc1)Cc1nc2ccccc2[nH]1 [Example 5-52],448
13,CCOC(=O)CCC(=O)N(Cc1ccc(C(=O)NC[C@H](NC(=O)OCc2ccccc2)C(=O)O)cc1)Cc1nc2ccccc2[nH]1 [Example 5-17],76
14,O=C(N[C@@H](CNC(=O)c1ccc(CN(Cc2nc3ccccc3[nH]2)C(=O)CCc2ccccc2)cc1)C(=O)O)OCc1ccccc1 [Example 5-16],899
15,CC(C)(C)OC(=O)N[C@@H](CNC(=O)c1ccc(CN(Cc2nc3ccccc3[nH]2)C(=O)CCC2CCCC2)cc1)C(=O)O [Example 5-64],499
16,O=C(N[C@@H](CNC(=O)c1ccc(CN(Cc2nc3ccccc3[nH]2)C(=O)NS(=O)(=O)c2ccc(Cl)cc2)cc1)C(=O)O)OCc1ccccc1 [Example 5-44],66.3
17,COCC(=O)N(Cc1ccc(C(=O)NC[C@H](NC(=O)OCc2ccccc2)C(=O)O)cc1)C(C)c1nc2ccccc2[nH]1 (stereo partly drawn) [Example 5-77],12.4
18,CCCNC(=O)N(Cc1ccc(C(=O)NC[C@H](NC(=O)OCc2ccccc2)C(=O)O)cc1)Cc1nc2ccccc2[nH]1 [Example 5-39],223
19,CC(c1nc2ccccc2[nH]1)N(Cc1ccc(C(=O)NC[C@H](NC(=O)OCc2ccccc2)C(=O)O)cc1)C(=O)CCc1ccccc1 (stereo partly drawn) [Example 5-78],33.9
20,"CCCCOC(=O)N[C@@H](CNC(=O)c1ccc(CN(Cc2nc3ccccc3[nH]2)C(=O)NCC(=O)O)cc1)C(=O)O [Example 5-97, N^3-[4-[(Benzimidazol-2-yl)methyl][[(carboxymethyl)amino]carbonyl]aminomethylbenzoyl]-N^2-(n-butoxycarbonyl)-L-2,3-diaminopropionic acid]",2600
21,CCCCOC(=O)N[C@@H](CNC(=O)c1ccc(CN(Cc2nc3ccccc3[nH]2)C(=O)Nc2ccccc2)cc1)C(=O)O [Example 5-83],1689
22,COc1ccc(NC(=S)N(Cc2ccc(C(=O)NC[C@H](NC(=O)OCc3ccccc3)C(=O)O)cc2)Cc2nc3ccccc3[nH]2)cc1 [Example 5-46],1065
23,CC(C)NC(=O)N(Cc1ccc(C(=O)NC[C@H](NC(=O)OCc2ccccc2)C(=O)O)cc1)Cc1nc2cc(Cl)ccc2[nH]1 [Example 5-95],775
24,O=C(N[C@@H](CNC(=O)c1ccc(CN(Cc2nc3ccccc3[nH]2)C(=O)NC2CCCCC2)cc1)C(=O)O)OCc1ccccc1 [Example 5-28],1136
25,O=C(N[C@H](CNC(=O)c1ccc(CNCc2nc3ccccc3[nH]2)cc1)C(=O)O)OCc1ccccc1 [Example 5-57],1.43
26,COCC(=O)N(Cc1ccc(C(=O)NC[C@@H](NC(=O)OCc2ccccc2)C(=O)O)cc1)Cc1nc2ccccc2[nH]1 [Example 5-58],46
27,O=C(N[C@@H](CNC(=O)c1ccc(CN(Cc2nc3ccccc3[nH]2)C(=O)C2CC2c2ccccc2)cc1)C(=O)O)OCc1ccccc1 (stereo partly drawn) [Example 5-22],26
